Laboratory results published in PubChem BioAssay (NCI).
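Dose response: 5 concentrations. Exposure: 48 h. Format: 96-well plates. Endpoint: linear interpolation; highest concentration if not reached. GI50 = concentration required for 50% inhibition of growth. The concentration for full growth arrest is given as TGI.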

Legend:
Assay in all cases: NCI-60 cell line screen, 48 h
[1] = tested on: HL-60(TB) leukemia
[2] = tested on: MOLT-4 leukemia
[3] = tested on: SK-OV-3 ovarian
[4] = tested on: SR leukemia
[5] = tested on: IGROV1 ovarian
[6] = tested on: A498 renal
[7] = tested on: SW-620 colon
[8] = tested on: SF-268 CNS
[9] = tested on: 786-0 renal
[10] = tested on: K-562 leukemia

## C=C1C(=O)OC2CCCCC3OC3C12 (stereo not given)
[1]
  TGI: 9.72 µM
[2]
  TGI: 33.2 µM
[3]
  TGI: 32 µM
[4]
  TGI: 53.1 µM
[5]
  TGI: 33.4 µM
[6]
  TGI: 29.1 µM
[7]
  TGI: 13.3 µM
[8]
  TGI: 31.1 µM
[9]
  TGI: 19.8 µM
[10]
  TGI: 70.5 µM

## CCCc1cc(=O)oc2c(C(=O)CC(C)C)c(O)c(CC=C(C)C)c(O)c12
[1]
  GI50: 7.01 µM
  TGI: 22.9 µM
[2]
  GI50: 11.7 µM
  TGI: > 50 µM
[3]
  GI50: 13.5 µM
  TGI: 41.2 µM
[4]
  GI50: 16.2 µM
  TGI: > 50 µM
[5]
  GI50: 15.4 µM
  TGI: > 50 µM
[6]
  GI50: 4.04 µM
  TGI: 17.9 µM
[7]
  GI50: 14.9 µM
  TGI: > 50 µM
[8]
  GI50: 11.2 µM
  TGI: > 50 µM
[9]
  GI50: 10.5 µM
  TGI: 46.2 µM
[10]
  GI50: 4.13 µM
  TGI: > 50 µM

## CN(C)CC(C(=O)c1ccccc1)c1ccccc1 (stereo not given)
[1]
  GI50: 3.17 µM
  TGI: 8.22 µM
[2]
  GI50: 4.2 µM
  TGI: 31.3 µM
[3]
  GI50: 2.62 µM
  TGI: 7.77 µM
[4]
  GI50: 2.28 µM
  TGI: 7.51 µM
[5]
  GI50: 2.2 µM
  TGI: 5.47 µM
[6]
  GI50: 4.44 µM
  TGI: 18.4 µM
[7]
  GI50: 0.396 µM
  TGI: 1.57 µM
[8]
  GI50: 3.26 µM
  TGI: 10.8 µM
[9]
  GI50: 3.58 µM
  TGI: 10.4 µM
[10]
  GI50: 0.483 µM
  TGI: 10.1 µM

## O=C1NC(=NCC(CO)c2ccccc2)S/C1=C\c1ccc2ncccc2c1 (stereo not given)
[1]
  GI50: 8.34 µM
  TGI: > 25 µM
[2]
  GI50: > 25 µM
  TGI: > 25 µM
[3]
  GI50: > 25 µM
  TGI: > 25 µM
[4]
  GI50: 4.49 µM
  TGI: > 22.7 µM
[5]
  GI50: 19 µM
  TGI: > 25 µM
[6]
  GI50: > 15.3 µM
  TGI: > 25 µM
[7]
  GI50: 7.74 µM
  TGI: > 25 µM
[8]
  GI50: > 16.9 µM
  TGI: > 25 µM
[9]
  GI50: > 25 µM
  TGI: > 25 µM
[10]
  GI50: 10.6 µM
  TGI: > 25 µM

## O=[N+]([O-])c1cccc(C2SCc3nc4ccccc4n32)c1 (stereo not given)
[1]
  TGI: > 100 µM
[2]
  TGI: > 100 µM
[3]
  TGI: > 100 µM
[4]
  TGI: > 100 µM
[5]
  TGI: > 100 µM
[6]
  TGI: > 100 µM
[7]
  TGI: > 100 µM
[8]
  TGI: > 100 µM
[9]
  TGI: > 100 µM
[10]
  TGI: > 100 µM

## CC(C)c1cc(C(C)C)c(S(=O)(=O)NN)c(C(C)C)c1
[4]
  TGI: > 100 µM
[5]
  TGI: > 100 µM
[6]
  TGI: > 100 µM
[7]
  TGI: > 100 µM
[8]
  TGI: > 100 µM
[9]
  TGI: > 100 µM
[10]
  TGI: > 100 µM

## CCOP(=O)(CCP(=O)(OCC)OCC)OCC.C[CH2][Sn]([Cl])([Cl])[CH2]C
[1]
  GI50: 56.6 µM
  TGI: > 95.2 µM
[2]
  GI50: 39.9 µM
  TGI: > 100 µM
[3]
  GI50: 99.3 µM
  TGI: > 100 µM
[4]
  GI50: 38.2 µM
  TGI: > 100 µM
[5]
  GI50: > 100 µM
  TGI: > 100 µM
[6]
  GI50: 17.4 µM
  TGI: 26 µM
[7]
  GI50: 21.2 µM
  TGI: 42.1 µM
[8]
  GI50: 38.8 µM
  TGI: > 66.8 µM
[9]
  GI50: 21.7 µM
  TGI: 50.2 µM
[10]
  GI50: 27.4 µM
  TGI: > 100 µM

## Nc1ccc2c(c1)C(=O)c1ccc(F)cc1-2
[1]
  TGI: > 100 µM
[2]
  TGI: > 100 µM
[3]
  TGI: > 100 µM
[4]
  TGI: > 100 µM
[5]
  TGI: > 100 µM
[6]
  TGI: > 100 µM
[7]
  TGI: > 100 µM
[8]
  TGI: > 100 µM
[9]
  TGI: > 100 µM
[10]
  TGI: > 100 µM

## CSC1=Nc2c(c(C)c(-c3ccccc3)n2COC(CO)CO)C2=NC(=O)C(C)N12 (stereo not given)
[1]
  GI50: 3.69 µM
  TGI: > 100 µM
[2]
  GI50: 29.6 µM
  TGI: > 100 µM
[3]
  GI50: > 100 µM
  TGI: > 100 µM
[4]
  GI50: 4.07 µM
  TGI: > 100 µM
[5]
  GI50: 26.5 µM
  TGI: > 100 µM
[6]
  GI50: > 100 µM
  TGI: > 100 µM
[7]
  GI50: > 100 µM
  TGI: > 100 µM
[8]
  GI50: > 100 µM
  TGI: > 100 µM
[9]
  GI50: > 100 µM
  TGI: > 100 µM
[10]
  GI50: > 100 µM
  TGI: > 100 µM

## COc1cc(/C=C/C(=O)C(=Cc2ccc(F)c(F)c2)C(=O)/C=C/c2ccc(O)c(OC)c2)ccc1O
[1]
  GI50: 2.67 µM
  TGI: 6.85 µM
[2]
  GI50: 2.75 µM
  TGI: > 100 µM
[3]
  GI50: 3.45 µM
  TGI: 12.5 µM
[4]
  GI50: 2.83 µM
  TGI: 9.2 µM
[5]
  GI50: 3.82 µM
  TGI: 67.9 µM
[6]
  GI50: 2 µM
  TGI: 6.95 µM
[7]
  GI50: 1.84 µM
  TGI: 3.62 µM
[8]
  GI50: 2.74 µM
  TGI: 12.5 µM
[9]
  GI50: 2.32 µM
  TGI: 5.5 µM
[10]
  GI50: 3.16 µM
  TGI: 32.8 µM

## C/C=C/C=N/N(c1nnc(-c2ccccc2)c(-c2ccccc2)n1)S(=O)(=O)c1ccc(C)cc1
[1]
  TGI: 6.36 µM
[2]
  TGI: 26.6 µM
[3]
  TGI: 33.8 µM
[4]
  TGI: 21.1 µM
[5]
  TGI: 29.3 µM
[6]
  TGI: 27.6 µM
[7]
  TGI: 14.9 µM
[8]
  TGI: 18 µM
[9]
  TGI: 19.2 µM
[10]
  TGI: > 100 µM

## COc1cc(CNC(=O)/C=C/C=C/c2ccc3c(c2)OCO3)ccc1OCc1cn(-c2ccc(Cl)c(Cl)c2)nn1
[1]
  GI50: 2.08 µM
  TGI: 5.73 µM
[2]
  GI50: 0.738 µM
  TGI: 2.67 µM
[3]
  GI50: 2.54 µM
  TGI: 6.57 µM
[4]
  GI50: 2.8 µM
  TGI: 19.1 µM
[5]
  GI50: 1.52 µM
  TGI: 3.75 µM
[6]
  GI50: 1.57 µM
  TGI: 3.22 µM
[7]
  GI50: 0.362 µM
  TGI: 1.55 µM
[8]
  GI50: 2.3 µM
  TGI: 7.94 µM
[9]
  GI50: 2.03 µM
  TGI: 4.28 µM
[10]
  GI50: 0.509 µM
  TGI: 3.78 µM

## CC/C(=N\Nc1nc2ccccc2n1C)c1ccccn1
[1]
  GI50: 0.0252 µM
  TGI: 0.319 µM
[2]
  GI50: < 0.0174 µM
  TGI: 7.47 µM
[3]
  GI50: 0.064 µM
  TGI: 1.58 µM
[4]
  GI50: 0.0428 µM
  TGI: 12.4 µM
[5]
  GI50: 0.0294 µM
  TGI: 7.76 µM
[6]
  GI50: 0.153 µM
  TGI: 0.837 µM
[7]
  GI50: 0.0393 µM
  TGI: 15 µM
[8]
  GI50: 0.194 µM
  TGI: 11.1 µM
[9]
  GI50: 0.211 µM
  TGI: 1.52 µM
[10]
  GI50: 0.0102 µM
  TGI: > 100 µM

## Cc1ccc(/C=C(\C#N)n2nnc3cc(Cl)c(Cl)cc32)cc1
[1]
  GI50: 1.78 µM
  TGI: 6.94 µM
[2]
  GI50: 2.73 µM
  TGI: > 100 µM
[3]
  GI50: 3.69 µM
  TGI: 91.5 µM
[4]
  GI50: 0.417 µM
  TGI: 40.6 µM
[5]
  GI50: 2.26 µM
  TGI: 6.48 µM
[6]
  GI50: 1.91 µM
  TGI: 4.59 µM
[8]
  GI50: 3.66 µM
  TGI: > 100 µM
[9]
  GI50: 2.46 µM
  TGI: 6 µM
[10]
  GI50: 0.892 µM
  TGI: 33.2 µM

## O=C(CCCn1c2c(sc3ncccc32)c(=O)n2nnc(-c3ccccc3)c12)NCCc1cnc[nH]1
[1]
  GI50: 1.41 µM
  TGI: 4.76 µM
[2]
  GI50: 2.22 µM
  TGI: 24.2 µM
[3]
  GI50: 14.3 µM
  TGI: 27.7 µM
[4]
  GI50: 2.52 µM
  TGI: 6.14 µM
[5]
  GI50: 9.54 µM
  TGI: 27.6 µM
[6]
  GI50: 6.84 µM
  TGI: 22.6 µM
[7]
  GI50: 0.331 µM
  TGI: 14.4 µM
[8]
  GI50: 11.7 µM
  TGI: 29.1 µM
[9]
  GI50: 12.6 µM
  TGI: 25.7 µM
[10]
  GI50: 0.31 µM
  TGI: 15.6 µM
